Laboratory results reported in PubChem BioAssay AID330 (DTP/NCI, 2004).
Several values for one entry are separate records, joined by “and”; a condition that tells them apart may be missing. Equal values may be shown once. Inconclusive results and toxic doses are left out. How the source made its calls: active means survival T/C of 150% or more; inactive means T/C below 125% in these data. Numbered stars: 1 amine (or outer) side, 2 acyl side, 3 side chain; on linkers, the order of the positions; unused ones are H or OH. Square brackets hold non-standard residues; d marks the D form. Peptide text beside a SMILES is read from it. * marks the point of attachment. ξ: configuration not given here. X4 = CCC(=O)CC(O)CC(C)CC(N[*:1])C(=O)[*:2]; ξLeu(3ξ-OH) = CC(C)C(O)C(N)C(=O)O; ξPro(4ξ-Me) = CC1CNC(C(=O)O)C1; X3 = CCC(C)/C=C/C(=O)*; Aib = CC(C)(N)C(=O)O; X5 = CC(CN(C)C)N*; βAla = NCCC(=O)O

Tested on: P388 leukemia ip, CD2F1 mice, survival T/C
Assay: NCI In Vivo Anticancer Drug Screen. Data for tumor model P388 Leukemia (intraperitoneal) in CD2F1 (CDF1) mice
Conditions: endpoint: median survival time, higher = longer survival
Summary of the method: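 Mice carrying the transplanted tumor received test compound or vehicle. Survival was recorded in each group, and the value is the treated-group measurement divided by that of the vehicle-treated control group.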

[1] = dose: 50.0 mg/kg/injection, schedule: Q01DX005 (ip), vehicle: saline with Tween-80
[2] = dose: 100.0 mg/kg/injection, schedule: Q01DX005 (ip), vehicle: saline with Tween-80
[3] = dose: 200.0 mg/kg/injection, schedule: Q01DX005 (ip), vehicle: saline with Tween-80
[4] = dose: 60.0 mg/kg/injection, schedule: Q01DX005 (ip), vehicle: saline with Tween-80
[5] = dose: 120.0 mg/kg/injection, schedule: Q01DX005 (ip), vehicle: saline with Tween-80
[6] = dose: 50.0 mg/kg/injection, schedule: Q01DX009 (ip), vehicle: other
[7] = dose: 100.0 mg/kg/injection, schedule: Q01DX009 (ip), vehicle: other
[8] = dose: 200.0 mg/kg/injection, schedule: Q01DX009 (ip), vehicle: other
[9] = dose: 240.0 mg/kg/injection, schedule: Q01DX005 (ip), vehicle: saline with Tween-80
[10] = dose: 100.0 mg/kg/injection, schedule: Q04DX002 (ip), vehicle: saline with Tween-80
[11] = dose: 200.0 mg/kg/injection, schedule: Q04DX002 (ip), vehicle: saline with Tween-80

Measured: T/C

COc1cccc2c1C(=O)c1c(O)c3c(c(O)c1C2=O)CC(O)(C(C)=O)CC3OC1CC(SC)C(OC(C)=O)C(C)O1 (stereo not drawn)
inactive: dose: 3.13 mg/kg/injection, schedule: Q04DX003 (ip), vehicle: distilled water + Tween-80 100 % of control | dose: 3.13 mg/kg/injection, schedule: Q04DX003 (ip), vehicle: water 101 % of control | dose: 6.25 mg/kg/injection, schedule: Q04DX003 (ip), vehicle: distilled water + Tween-80 105 % of control | dose: 6.25 mg/kg/injection, schedule: Q04DX003 (ip), vehicle: water 96 % of control | dose: 12.5 mg/kg/injection, schedule: Q04DX003 (ip), vehicle: distilled water + Tween-80 97 % of control | dose: 12.5 mg/kg/injection, schedule: Q04DX003 (ip), vehicle: water 97 % of control | dose: 25.0 mg/kg/injection, schedule: Q04DX003 (ip), vehicle: distilled water + Tween-80 100 % of control | dose: 25.0 mg/kg/injection, schedule: Q04DX003 (ip), vehicle: water 100 % of control | dose: 50.0 mg/kg/injection, schedule: Q04DX003 (ip), vehicle: distilled water + Tween-80 110 % of control | dose: 50.0 mg/kg/injection, schedule: Q04DX003 (ip), vehicle: water 96 % of control

NC1(c2ccccc2)C2CC3CC(C2)CC1C3 (stereo not drawn)
inactive: dose: 25.0 mg/kg/injection, schedule: Q04DX003 (ip), vehicle: Klucel (hydroxypropylcellulose) (HPC) 101 % of control | dose: 50.0 mg/kg/injection, schedule: Q04DX003 (ip), vehicle: Klucel (hydroxypropylcellulose) (HPC) 102 % of control | dose: 100.0 mg/kg/injection, schedule: Q04DX003 (ip), vehicle: Klucel (hydroxypropylcellulose) (HPC) 109 % of control

Cc1c(COC(=O)NC(C)C)c(COC(=O)NC(C)C)c2n1CCS2(=O)=O
inactive: dose: 25.0 mg/kg/injection, schedule: Q01DX005 (ip), vehicle: saline with Tween-80 92 % of control | [1] 100 % of control | [2] 92 % of control | [3] 86 % of control and 91 % of control | dose: 400.0 mg/kg/injection, schedule: Q01DX005 (ip), vehicle: saline with Tween-80 91 % of control

CC(C)(C)C1CC[N+](=C(O[B-](F)(F)F)c2ccccc2)CC1 (stereo not drawn)
inactive: [4] 100 % of control | [5] 103 % of control

Cc1cc(=O)n(-c2ccc(-c3ccc(-n4c(C)c(C(=O)O)c(C)cc4=O)cc3)cc2)c(C)c1C(=O)O
inactive: [1] 102 % of control | [2] 100 % of control | [3] 106 % of control

CC1(O)C2CCCCC2C2CCCCC2C1(C)O (stereo not drawn)
inactive: [1] 101 % of control | [2] 100 % of control | [3] 103 % of control

CNC(=O)OCc1ccc(NCCN(C)C)c2c(=O)c3cc(OC(=O)NC)ccc3oc12
inactive: dose: 3.13 mg/kg/injection, schedule: Q01DX005 (ip), vehicle: Klucel (hydroxypropylcellulose) (HPC) 118 % of control | dose: 6.25 mg/kg/injection, schedule: Q01DX005 (ip), vehicle: Klucel (hydroxypropylcellulose) (HPC) 123 % of control

COc1ccc(OC)c(C=C(C(C)=O)C(C)=O)c1
inactive: dose: 25.0 mg/kg/injection, schedule: Q01DX009 (ip), vehicle: other 111 % of control | [6] 105 % of control | [7] 109 % of control | [8] 108 % of control | dose: 400.0 mg/kg/injection, schedule: Q01DX009 (ip), vehicle: other 115 % of control

N#Cc1c(N2CCOCC2)c(-c2ccccc2)c(N2CCOCC2)n2c1nc1ccccc12
inactive: [4] 90 % of control | [5] 96 % of control | [9] 87 % of control

Cc1ccc(S)c(C(O)(C(F)(F)F)C(F)(F)F)c1
inactive: [6] 100 % of control | [7] 100 % of control | [8] 100 % of control

CC(=O)CCNc1ccc(O)c2c1C(=O)c1ccccc1C2=O
inactive: dose: 25.0 mg/kg/injection, schedule: Q04DX002 (ip), vehicle: saline with Tween-80 100 % of control | dose: 50.0 mg/kg/injection, schedule: Q04DX002 (ip), vehicle: saline with Tween-80 101 % of control | [10] 94 % of control | [11] 100 % of control

O=[N+]([O-])c1ccc([S][Pb]([c]2ccccc2)([c]2ccccc2)[c]2ccccc2)cc1
inactive: dose: 6.25 mg/kg/injection, schedule: Q01DX009 (ip), vehicle: Klucel (hydroxypropylcellulose) (HPC) 100 % of control | dose: 12.5 mg/kg/injection, schedule: Q01DX009 (ip), vehicle: Klucel (hydroxypropylcellulose) (HPC) 102 % of control | dose: 25.0 mg/kg/injection, schedule: Q01DX009 (ip), vehicle: Klucel (hydroxypropylcellulose) (HPC) 89 % of control

CC(COC(=O)c1cccc([N+](=O)[O-])c1C(=O)O)c1ccccc1 (stereo not drawn)
inactive: [10] 98 % of control | [11] 109 % of control | dose: 400.0 mg/kg/injection, schedule: Q04DX002 (ip), vehicle: saline with Tween-80 110 % of control

N#Cc1cn(N(CCO)CCO)c(=O)[nH]c1=O
inactive: dose: 25.0 mg/kg/injection, schedule: Q01DX005 (ip), vehicle: saline 105 % of control | dose: 50.0 mg/kg/injection, schedule: Q01DX005 (ip), vehicle: saline 106 % of control | dose: 100.0 mg/kg/injection, schedule: Q01DX005 (ip), vehicle: saline 105 % of control | dose: 200.0 mg/kg/injection, schedule: Q01DX005 (ip), vehicle: saline 103 % of control

C[C@@H]1CN(c2ccccc2)C[C@@H](C)OS(=O)O1
inactive: dose: 100.0 mg/kg/injection, schedule: Q04DX002 (ip), vehicle: Klucel (hydroxypropylcellulose) (HPC) 104 % of control | dose: 200.0 mg/kg/injection, schedule: Q04DX002 (ip), vehicle: Klucel (hydroxypropylcellulose) (HPC) 97 % of control | dose: 400.0 mg/kg/injection, schedule: Q04DX002 (ip), vehicle: Klucel (hydroxypropylcellulose) (HPC) 100 % of control

COc1nc(Cl)nc(OC)n1
inactive: dose: 200.0 mg/kg/injection, schedule: Q01DX009 (ip), vehicle: saline with Tween-80 86 % of control

[C-]#[N+]C([N+]#[C-])=C(C)OCC
inactive: dose: 6.25 mg/kg/injection, schedule: Q01DX009 (ip), vehicle: saline with Tween-80 98 % of control | dose: 12.5 mg/kg/injection, schedule: Q01DX009 (ip), vehicle: saline with Tween-80 89 % of control | dose: 25.0 mg/kg/injection, schedule: Q01DX009 (ip), vehicle: saline with Tween-80 105 % of control | dose: 100.0 mg/kg/injection, schedule: Q01DX009 (ip), vehicle: saline 101 % of control

C(=C\c1cc2ccc(C3=NCCN3)cc2[nH]1)/c1ccc(C2=NCCN2)cc1
inactive: dose: 6.25 mg/kg/injection, schedule: Q04DX003 (ip), vehicle: saline 118 % of control

CC1CCP(c2ccccc2)C1 (stereo not drawn)
inactive: dose: 100.0 mg/kg/injection, schedule: Q01DX001 (ip), vehicle: saline with Tween-80 105 % of control | dose: 200.0 mg/kg/injection, schedule: Q01DX001 (ip), vehicle: saline with Tween-80 116 % of control

O=C(O)/C=C\c1c[nH]c2ccccc12
inactive: [4] 94 % of control | [5] 94 % of control | [9] 88 % of control

Cc1ccc(CSCC(NC(=O)OC(C)(C)C)C(=O)O)cc1 (stereo not drawn)
inactive: dose: 50.0 mg/kg/injection, schedule: Q01DX005 (ip), vehicle: Klucel (hydroxypropylcellulose) (HPC) 104 % of control | dose: 100.0 mg/kg/injection, schedule: Q01DX005 (ip), vehicle: Klucel (hydroxypropylcellulose) (HPC) 97 % of control | dose: 200.0 mg/kg/injection, schedule: Q01DX005 (ip), vehicle: Klucel (hydroxypropylcellulose) (HPC) 92 % of control

CCC(=O)CC(O)CC(C)CC(NC(=O)C1CC(C)CN1C(=O)/C=C/C(C)CC)C(=O)NC(C(=O)NC(C)(C)C(=O)NC(CC(C)C)C(=O)NC(CC(C)C)C(=O)NC(C)(C)C(=O)NC(C)(C)C(=O)NCCC(=O)NC(C)CN(C)C)C(O)C(C)C (stereo not drawn) (X3-[ξPro(4ξ-Me)][X4][ξLeu(3ξ-OH)][Aib]LL[Aib][Aib][βAla]-X5; configuration not given here)
inactive: dose: 50.0 micrograms/kg/injection, schedule: Q01DX005 (ip), vehicle: saline + alcohol 101 % of control | dose: 100.0 micrograms/kg/injection, schedule: Q01DX005 (ip), vehicle: saline + alcohol 101 % of control | dose: 200.0 micrograms/kg/injection, schedule: Q01DX005 (ip), vehicle: saline + alcohol 101 % of control | dose: 400.0 micrograms/kg/injection, schedule: Q01DX005 (ip), vehicle: saline + alcohol 111 % of control | dose: 800.0 micrograms/kg/injection, schedule: Q01DX005 (ip), vehicle: saline + alcohol 110 % of control

CC12CCN=C1c1ccc3cc(O)ccc3c1CC2 (stereo not drawn)
inactive: dose: 100.0 mg/kg/injection, schedule: Q01DX001 (sc), vehicle: steriod suspending solution 104 % of control | dose: 200.0 mg/kg/injection, schedule: Q01DX001 (sc), vehicle: steriod suspending solution 118 % of control | dose: 400.0 mg/kg/injection, schedule: Q01DX001 (sc), vehicle: steriod suspending solution 100 % of control
